For 26 molecules, IC50 results are on record in the Kinase Knowledgebase extract (Sharma et al. 2016).

One experiment has as its target PIK3CG (human) (UniProt P48736). Description: Enzyme Assay.
For another experiment, the target named is PIK3CD (Human) (UniProt O00329). Description: Cell-Based Assay. To be noted: raji.
A further experiment concerns the target PIK3CA (human) (UniProt P42336). Description: Enzyme Assay.
The next experiment concerns the target PIK3CB (Human) (UniProt P42338). Description: Enzyme Assay.

PIK3CA (human), sequence (P42336 whole entry, looked up): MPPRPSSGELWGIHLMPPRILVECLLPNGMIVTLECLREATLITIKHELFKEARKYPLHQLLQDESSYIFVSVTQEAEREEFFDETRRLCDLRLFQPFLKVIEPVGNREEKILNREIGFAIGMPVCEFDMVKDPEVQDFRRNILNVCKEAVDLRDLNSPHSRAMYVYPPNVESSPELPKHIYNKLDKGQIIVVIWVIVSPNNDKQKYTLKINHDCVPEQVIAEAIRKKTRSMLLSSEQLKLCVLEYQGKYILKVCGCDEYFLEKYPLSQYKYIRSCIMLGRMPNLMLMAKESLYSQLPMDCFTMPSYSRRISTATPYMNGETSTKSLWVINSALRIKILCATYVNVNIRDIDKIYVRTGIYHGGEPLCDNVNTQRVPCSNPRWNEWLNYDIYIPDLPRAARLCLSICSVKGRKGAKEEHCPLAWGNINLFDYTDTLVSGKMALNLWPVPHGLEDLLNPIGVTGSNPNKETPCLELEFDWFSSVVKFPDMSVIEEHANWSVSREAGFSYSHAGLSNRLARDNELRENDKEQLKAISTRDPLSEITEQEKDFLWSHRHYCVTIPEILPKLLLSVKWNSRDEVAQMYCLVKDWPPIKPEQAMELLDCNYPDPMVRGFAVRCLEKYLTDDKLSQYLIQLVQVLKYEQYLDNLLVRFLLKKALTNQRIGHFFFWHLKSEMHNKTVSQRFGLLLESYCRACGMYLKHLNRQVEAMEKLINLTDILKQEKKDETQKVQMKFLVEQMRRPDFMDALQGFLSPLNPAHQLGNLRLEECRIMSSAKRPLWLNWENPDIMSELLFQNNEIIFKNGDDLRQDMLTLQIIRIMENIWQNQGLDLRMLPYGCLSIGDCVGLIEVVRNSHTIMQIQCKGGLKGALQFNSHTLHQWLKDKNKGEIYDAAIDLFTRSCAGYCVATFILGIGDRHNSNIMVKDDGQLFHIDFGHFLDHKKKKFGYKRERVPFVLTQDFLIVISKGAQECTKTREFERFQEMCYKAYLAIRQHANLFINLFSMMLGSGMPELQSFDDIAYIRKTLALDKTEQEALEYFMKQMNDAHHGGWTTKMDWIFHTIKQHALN
PIK3CG (human), sequence (P48736 whole entry, looked up): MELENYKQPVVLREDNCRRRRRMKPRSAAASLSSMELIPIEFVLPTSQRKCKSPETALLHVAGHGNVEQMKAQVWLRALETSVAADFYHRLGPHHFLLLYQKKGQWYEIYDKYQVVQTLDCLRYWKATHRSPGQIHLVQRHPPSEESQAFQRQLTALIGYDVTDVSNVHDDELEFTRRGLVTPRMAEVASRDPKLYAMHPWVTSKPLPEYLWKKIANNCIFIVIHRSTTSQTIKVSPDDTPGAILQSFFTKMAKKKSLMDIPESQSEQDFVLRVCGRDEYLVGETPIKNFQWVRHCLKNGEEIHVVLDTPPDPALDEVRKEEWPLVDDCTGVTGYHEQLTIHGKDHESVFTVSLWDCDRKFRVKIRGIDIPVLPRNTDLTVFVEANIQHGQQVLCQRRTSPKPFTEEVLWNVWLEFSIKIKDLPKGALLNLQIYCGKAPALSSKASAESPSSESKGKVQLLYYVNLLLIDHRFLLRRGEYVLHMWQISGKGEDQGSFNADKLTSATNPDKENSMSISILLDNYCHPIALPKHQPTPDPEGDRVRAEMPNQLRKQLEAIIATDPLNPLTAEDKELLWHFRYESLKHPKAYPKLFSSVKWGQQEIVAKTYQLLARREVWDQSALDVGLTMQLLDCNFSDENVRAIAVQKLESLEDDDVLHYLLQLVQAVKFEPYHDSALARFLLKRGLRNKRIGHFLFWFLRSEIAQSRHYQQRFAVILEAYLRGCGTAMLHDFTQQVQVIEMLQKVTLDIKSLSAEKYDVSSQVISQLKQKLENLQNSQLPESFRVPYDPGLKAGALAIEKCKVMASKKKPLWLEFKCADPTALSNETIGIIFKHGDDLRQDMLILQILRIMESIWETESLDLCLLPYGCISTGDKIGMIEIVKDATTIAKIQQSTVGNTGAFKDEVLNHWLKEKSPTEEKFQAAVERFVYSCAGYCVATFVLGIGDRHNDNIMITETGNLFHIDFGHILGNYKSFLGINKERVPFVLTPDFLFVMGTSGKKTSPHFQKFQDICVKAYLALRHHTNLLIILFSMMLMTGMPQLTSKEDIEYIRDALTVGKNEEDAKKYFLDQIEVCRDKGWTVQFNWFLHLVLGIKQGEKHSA
PIK3CB (Human), sequence (P42338 whole entry, looked up): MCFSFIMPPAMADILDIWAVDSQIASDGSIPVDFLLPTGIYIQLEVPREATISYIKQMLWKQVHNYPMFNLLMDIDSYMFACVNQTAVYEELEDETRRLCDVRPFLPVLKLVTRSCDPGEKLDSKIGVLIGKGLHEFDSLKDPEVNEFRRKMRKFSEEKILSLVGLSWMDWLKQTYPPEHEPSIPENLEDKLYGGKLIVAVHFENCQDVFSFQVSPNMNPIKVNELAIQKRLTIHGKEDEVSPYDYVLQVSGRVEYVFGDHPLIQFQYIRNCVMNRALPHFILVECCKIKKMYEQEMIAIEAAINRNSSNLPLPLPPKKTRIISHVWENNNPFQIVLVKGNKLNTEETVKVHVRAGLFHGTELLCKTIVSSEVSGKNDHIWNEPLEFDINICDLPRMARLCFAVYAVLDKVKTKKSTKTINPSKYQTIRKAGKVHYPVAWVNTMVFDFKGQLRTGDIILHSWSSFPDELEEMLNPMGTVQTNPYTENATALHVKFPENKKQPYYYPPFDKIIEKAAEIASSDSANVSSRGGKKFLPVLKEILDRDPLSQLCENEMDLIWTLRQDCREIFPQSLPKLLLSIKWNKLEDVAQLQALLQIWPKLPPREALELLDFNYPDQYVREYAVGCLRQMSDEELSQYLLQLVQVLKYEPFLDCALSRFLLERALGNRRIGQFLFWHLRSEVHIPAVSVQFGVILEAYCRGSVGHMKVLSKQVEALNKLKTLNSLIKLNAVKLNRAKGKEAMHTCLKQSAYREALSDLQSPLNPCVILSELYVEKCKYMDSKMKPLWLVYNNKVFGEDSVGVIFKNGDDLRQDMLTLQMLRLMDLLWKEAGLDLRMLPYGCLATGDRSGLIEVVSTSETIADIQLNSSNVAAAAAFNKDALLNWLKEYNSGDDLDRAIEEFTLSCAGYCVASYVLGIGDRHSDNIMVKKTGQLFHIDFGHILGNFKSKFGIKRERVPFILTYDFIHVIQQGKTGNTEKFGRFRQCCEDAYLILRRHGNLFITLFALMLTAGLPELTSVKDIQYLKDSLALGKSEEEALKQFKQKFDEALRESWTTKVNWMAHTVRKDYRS
PIK3CD (Human), sequence (O00329 whole entry, looked up): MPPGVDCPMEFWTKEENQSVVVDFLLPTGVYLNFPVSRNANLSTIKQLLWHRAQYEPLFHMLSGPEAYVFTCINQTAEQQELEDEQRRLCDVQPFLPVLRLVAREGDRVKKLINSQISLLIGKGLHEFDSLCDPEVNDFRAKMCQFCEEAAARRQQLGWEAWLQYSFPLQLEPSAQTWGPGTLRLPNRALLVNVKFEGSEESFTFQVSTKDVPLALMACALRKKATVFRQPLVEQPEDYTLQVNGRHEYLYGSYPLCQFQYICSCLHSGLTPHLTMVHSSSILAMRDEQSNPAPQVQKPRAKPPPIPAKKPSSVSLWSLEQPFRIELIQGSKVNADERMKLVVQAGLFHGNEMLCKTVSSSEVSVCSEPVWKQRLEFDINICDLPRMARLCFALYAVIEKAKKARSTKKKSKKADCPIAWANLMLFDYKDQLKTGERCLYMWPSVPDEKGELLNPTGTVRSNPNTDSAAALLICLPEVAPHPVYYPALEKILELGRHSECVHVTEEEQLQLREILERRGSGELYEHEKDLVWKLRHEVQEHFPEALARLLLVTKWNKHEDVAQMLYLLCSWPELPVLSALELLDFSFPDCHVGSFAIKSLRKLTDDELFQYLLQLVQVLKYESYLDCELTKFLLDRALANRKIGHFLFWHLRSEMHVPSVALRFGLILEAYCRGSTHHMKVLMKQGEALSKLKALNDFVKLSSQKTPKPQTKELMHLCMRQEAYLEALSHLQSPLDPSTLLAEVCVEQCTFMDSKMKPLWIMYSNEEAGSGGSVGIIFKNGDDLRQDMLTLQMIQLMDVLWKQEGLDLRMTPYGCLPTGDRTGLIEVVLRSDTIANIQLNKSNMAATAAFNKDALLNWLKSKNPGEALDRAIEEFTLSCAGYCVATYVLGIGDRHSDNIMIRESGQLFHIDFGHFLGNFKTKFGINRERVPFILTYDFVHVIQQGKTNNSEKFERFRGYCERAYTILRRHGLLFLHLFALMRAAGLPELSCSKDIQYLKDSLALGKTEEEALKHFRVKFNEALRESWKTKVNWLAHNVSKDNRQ

One may read the IC50 as the concentration that inhibits the measured activity by half. Low values mean greater potency in that assay, high ones weaker potency in that assay. On to `COc1ncc(-c2cccc3cc([C@H](C)NC(=O)c4c(N)nn5cccnc45)n(-c4ccccc4)c(=O)c23)cn1`, for which the figures for the IC50 at PIK3CG (human) and at PIK3CD (Human) were 0.1 to 1 µM and less than 0.1 µM, respectively.

Turning to `C[C@H](NC(=O)c1cnn2cccnc12)c1cc2cccc(C#CCNC(=O)[C@@H]3CCC(=O)N3)c2c(=O)n1-c1ccccc1`, the IC50 against PIK3CG (human) and at PIK3CD (Human) was 0.1 to 1 µM each time.

With `COc1cc(-c2cccc3nc([C@H](C)NC(=O)c4c(N)nn5cccnc45)n(C4CC4)c(=O)c23)ccn1`, the IC50 at PIK3CD (Human) lay within 0.1 to 1 µM.

Turning to `C[C@H](NC(=O)c1nc(-c2cccc(S(=O)(=O)NC3CC3)c2)cnc1N)c1cc2cccc(Cl)c2c(=O)n1-c1ccccc1`, the half-maximal inhibitory concentration (IC50) against PIK3CA (human) was no less than 10 µM; at PIK3CD (Human), less than 0.1 µM.

On to `C[C@H](NC(=O)c1nc(-c2cccc(S(=O)(=O)NC(C)(C)C)c2)cnc1N)c1cc2cccc(Cl)c2c(=O)n1-c1ccccc1`, for which the IC50 is 0.1 to 1 µM at PIK3CG (human) and less than 0.1 µM on PIK3CD (Human).

Consider `Cc1ccn2ncc(C(=O)N[C@@H](C)c3cc4cccc(Cl)c4c(=O)n3-c3ccccc3)c2n1`, for which the IC50 against PIK3CA (human) was no less than 10 µM; against PIK3CD (Human), 0.1 to 1 µM.

In the case of `C[C@H](NC(=O)c1c(N)nn2cccnc12)c1cc2cccc(-c3cncs3)c2c(=O)n1-c1ccccc1`, the IC50 is no less than 10 µM against PIK3CB (Human), 0.1 to 1 µM against PIK3CG (human) and less than 0.1 µM at PIK3CD (Human).

As to `CNS(=O)(=O)c1cccc(-c2cnc(N)c(C(=O)N[C@@H](C)c3cc4cccc(Cl)c4c(=O)n3-c3ccccc3)n2)c1`, the IC50 is 0.1 to 1 µM against PIK3CB (Human), 0.1 to 1 µM against PIK3CG (human) and less than 0.1 µM at PIK3CD (Human).

In the case of `C[C@H](NC(=O)c1c(N)nn2cccnc12)c1cc2cccc(Cl)c2c(=O)n1-c1ccc(F)cc1`, the figures for the IC50 on PIK3CB (Human), against PIK3CG (human) and against PIK3CD (Human) were 0.1 to 1 µM, less than 0.1 µM and less than 0.1 µM, respectively.

For `C[C@H](NC(=O)c1c(N)nn2cccnc12)c1cc2cccc(C#CCCN)c2c(=O)n1-c1ccccc1`, the IC50 against PIK3CG (human) and against PIK3CD (Human) was 0.1 to 1 µM in each case.

`C[C@H](NC(=O)c1c(N)nn2cccnc12)c1cc2cccc(C=O)c2c(=O)n1-c1ccccc1`: the IC50 on PIK3CA (human) was no less than 10 µM; against PIK3CD (Human), 0.1 to 1 µM.

In the case of `CC(C)Oc1ccc(-c2cnc(N)c(C(=O)N[C@@H](C)c3cc4cccc(Cl)c4c(=O)n3-c3ccccc3)n2)cc1F`, the IC50 is no less than 10 µM against PIK3CB (Human) and 0.1 to 1 µM at PIK3CG (human).

In the case of `C[C@H](NC(=O)c1c(N)nn2cccnc12)c1cc2cccc(-c3cccs3)c2c(=O)n1-c1ccccc1`, the IC50 against PIK3CG (human) and at PIK3CD (Human) was 0.1 to 1 µM in each case.

For the molecule `C[C@H](NC(=O)c1nc(-c2cn[nH]c2)cnc1N)c1cc2cccc(Cl)c2c(=O)n1-c1ccccc1`, the 50% inhibitory concentration (IC50) against PIK3CG (human) was 0.1 to 1 µM; at PIK3CD (Human) it was less than 0.1 µM.

With `COc1cc(-c2cccc3cc([C@H](C)NC(=O)c4c(N)nn5ccc(C)nc45)n(-c4ccccc4)c(=O)c23)ccn1`, the IC50 is no less than 10 µM at PIK3CB (Human), 0.1 to 1 µM against PIK3CG (human) and less than 0.1 µM against PIK3CD (Human).

In turn, `C[C@H](NC(=O)c1cnc2cccnn12)c1cc2cccc(Cl)c2c(=O)n1-c1ccc(F)cc1` displayed an IC50 at PIK3CD (Human) of less than 0.1 µM.

With `C=CC(=O)NCCC#Cc1cccc2cc([C@H](C)NC(=O)c3c(N)nn4cccnc34)n(-c3ccccc3)c(=O)c12`, the IC50 was 0.1 to 1 µM on PIK3CG (human) and less than 0.1 µM against PIK3CD (Human).

On to `C[C@H](NC(=O)c1nc(-c2cccc(NS(=O)(=O)C3CC3)c2)cnc1N)c1cc2cccc(Cl)c2c(=O)n1-c1ccccc1`, for which the half-maximal inhibitory concentration (IC50) against PIK3CB (Human) is 0.1 to 1 µM; on PIK3CG (human), less than 0.1 µM; at PIK3CD (Human), less than 0.1 µM.

`CC#Cc1cccc2cc([C@H](C)NC(=O)c3c(N)nn4cccnc34)n(-c3ccccc3)c(=O)c12`: the IC50 at PIK3CG (human) and against PIK3CD (Human) was less than 0.1 µM each time.

As for `CC(=O)NCC#Cc1cccc2cc([C@H](C)NC(=O)c3c(N)nn4cccnc34)n(-c3ccccc3)c(=O)c12`, the IC50 on PIK3CG (human) and on PIK3CD (Human) was less than 0.1 µM throughout.

Consider `CC(C)NS(=O)(=O)c1cccc(-c2cnc(N)c(C(=O)N[C@@H](C)c3cc4cccc(Cl)c4c(=O)n3-c3ccccc3)n2)c1`, for which the half-maximal inhibitory concentration (IC50) against PIK3CB (Human) is 0.1 to 1 µM; against PIK3CG (human), 0.1 to 1 µM; against PIK3CD (Human) it was less than 0.1 µM.

Regarding `COc1cc(-c2cccc3cc([C@H](C)NC(=O)c4c(N)nn5cccnc45)n(-c4cccc(F)c4)c(=O)c23)ccn1`, the IC50 against PIK3CB (Human) is no less than 10 µM; against PIK3CG (human), 0.1 to 1 µM; against PIK3CD (Human), 0.1 to 1 µM.

As to `CC(=O)Nc1ncc(-c2cccc3cc([C@H](C)NC(=O)c4c(N)nn5cccnc45)n(-c4ccccc4)c(=O)c23)s1`, the values for the IC50 on PIK3CB (Human) and at PIK3CG (human) were no less than 10 µM and 0.1 to 1 µM, respectively.

In the case of `C[C@H](NC(=O)c1nc(-c2cccc(NS(C)(=O)=O)c2)cnc1N)c1cc2cccc(Cl)c2c(=O)n1-c1ccccc1`, the IC50 is 0.1 to 1 µM at PIK3CB (Human), less than 0.1 µM on PIK3CG (human) and less than 0.1 µM against PIK3CD (Human).

`C[C@H](NC(=O)c1c(N)nn2cccnc12)c1cc2cccc(C#CCNC(=O)[C@H]3CCC(=O)O3)c2c(=O)n1-c1ccccc1`: the IC50 against PIK3CG (human) and on PIK3CD (Human) was less than 0.1 µM in each case.

At PIK3CA (human), `C[C@H](NC(=O)c1c(N)oc2cccnc12)c1cc2cccc(Cl)c2c(=O)n1-c1ccccc1` registered an IC50 of no less than 10 µM.
